Where “and” joins values, the source holds several entries; their conditions need not be identical. Identical values can stand only once.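 Following 48 hours of exposure in 96-well plates, responses at five concentrations were used to interpolate endpoints linearly. Abbreviation: GI50, concentration required for 50% inhibition of growth. TGI is the concentration that stops growth completely.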
Columns and labels:
Assay in all cases: NCI anticancer screen, dose series, 48 h
[1] = tested on: A549 NSCLC
[2] = tested on: ACHN renal
[3] = tested on: COLO 205 colon
[4] = tested on: K-562 leukemia
[5] = tested on: MDA-N
[6] = tested on: NCI-H23 lung
[7] = tested on: NCI/ADR-RES ovarian
[8] = tested on: SF-295 CNS
[9] = tested on: SK-MEL-28 melanoma
[10] = tested on: SK-MEL-5 melanoma
[11] = tested on: SW-620 colon
[12] = tested on: UO-31 renal

| SMILES | TGI [1] | TGI [2] | TGI [3] | TGI [4] | TGI [5] | TGI [6] | TGI [7] | TGI [8] | TGI [9] | TGI [10] | TGI [11] | TGI [12] | GI50 [1] | GI50 [2] | GI50 [5] | GI50 [6] | GI50 [7] | GI50 [9] | GI50 [10] | GI50 [12] |
| --- | --- | --- | --- | --- | --- | --- | --- | --- | --- | --- | --- | --- | --- | --- | --- | --- | --- | --- | --- | --- |
| O=C1CCCc2cc3c(cc21)CCC3C(=O)O (configuration not stated) | > 100 µM | > 100 µM | > 100 µM | > 100 µM | > 100 µM | > 100 µM | > 100 µM | > 100 µM | > 100 µM | > 100 µM | > 100 µM | > 100 µM |  |  |  |  |  |  |  |  |
| CNC(=O)CCNC(=O)CCC(=O)OC | > 100 µM | > 100 µM | > 100 µM | > 100 µM | > 100 µM | > 100 µM | > 100 µM | > 100 µM | > 100 µM | > 100 µM | > 100 µM | > 100 µM |  |  |  |  |  |  |  |  |
| CC1(C)OCC(C2OC(N3O[C@H](CI)C[C@@H]3c3ccccc3)C3OC(C)(C)OC23)O1 (some centres not stated) | > 100 µM | > 100 µM | > 100 µM | > 100 µM | > 100 µM | > 100 µM | > 100 µM | > 100 µM | > 100 µM | > 100 µM | > 100 µM | > 100 µM |  |  |  |  |  |  |  |  |
| Cc1sc2nc3n(c(=O)c2c1C)N=C(c1ccc(Cl)cc1)CS3 | > 100 µM | > 100 µM | > 100 µM | > 100 µM | > 100 µM | > 100 µM | > 100 µM | > 100 µM | > 100 µM | > 100 µM | > 100 µM | > 100 µM |  |  |  |  |  |  |  |  |
| N#CS/C(Cl)=C(/C(Cl)=C(Cl)Cl)[N+](=O)[O-] | > 100 µM | > 100 µM | > 100 µM | > 100 µM | > 100 µM | > 100 µM | 98.1 µM | > 100 µM | 86.5 µM | > 100 µM | > 100 µM | > 100 µM |  |  |  |  |  |  |  |  |
| COC(=O)[C@H](Cc1ccccc1)NC(=O)N1CCN(C(=O)N[C@@H](Cc2ccccc2)C(=O)OC)CCN(C(=O)N[C@@H](Cc2ccccc2)C(=O)OC)CC1 | > 100 µM | > 100 µM | > 100 µM | > 100 µM | > 100 µM | > 100 µM | > 100 µM | > 100 µM | > 100 µM | > 100 µM | > 100 µM | > 100 µM |  |  |  |  |  |  |  |  |
| C/C=C(/C)C(=O)O[C@H]1C(C)=C[C@]23C(=O)[C@@H](C=C(COC(C)=O)[C@@H](O)[C@]12O)[C@H]1[C@@H](C[C@H]3C)[C@@]1(C)OC(=O)/C(C)=C\C | 9.34 µM | 4.39 µM | 3.8 µM | 6.81 µM | 6.35 µM | 5.19 µM | 6.82 µM | 5.01 µM | 11.8 µM | 3.84 µM | 9.76 µM | 2.16 µM |  |  |  |  |  |  |  |  |
| CC(C)(C)N1NC1C1NN1C(C)(C)C (configuration not stated) | > 100 µM | > 100 µM | > 100 µM | > 100 µM | > 100 µM | > 100 µM | > 100 µM | > 100 µM | > 100 µM | > 100 µM | > 100 µM | > 100 µM |  |  |  |  |  |  |  |  |
| Cc1ccccc1N(C)S(=O)(=O)c1ccccc1[N+](=O)[O-] | > 100 µM | > 100 µM | > 100 µM | > 100 µM | > 100 µM | > 100 µM | > 100 µM | > 100 µM | > 100 µM | 30.7 µM | > 100 µM | > 100 µM |  |  |  |  |  |  |  |  |
| [N-]=[N+]=Nc1ccc2c(c1)Sc1ccccc1N2CCCCCl | > 100 µM | > 100 µM | 82.3 µM | > 100 µM | > 100 µM | > 100 µM | > 100 µM | > 100 µM | > 100 µM | 59.8 µM | > 100 µM | > 100 µM |  |  |  |  |  |  |  |  |
| CCCCc1c2c(nc3c1CCC/C3=C\c1ccccc1)C(=O)C(CN(C)C)CC2 (configuration not stated) | 37.3 µM | 29.5 µM | 36.6 µM | 21.5 µM | 21.1 µM | 31.8 µM | 91.7 µM | 33.3 µM | 28.3 µM | 30.9 µM | 31.5 µM | 33.7 µM |  |  |  |  |  |  |  |  |
| COC(=N)C12C(N)=NC(OC)(OC)C1(C#N)C21C(=O)N(c2ccccc2)N=C1C (configuration not stated) | > 100 µM | > 100 µM | > 100 µM | > 100 µM | > 100 µM | > 100 µM | > 100 µM | > 100 µM | > 100 µM |  | > 100 µM | > 100 µM |  |  |  |  |  |  |  |  |
| O=C(Cc1ccccc1)c1ccc2[nH]c(=O)oc2c1 |  | > 100 µM | > 100 µM | > 100 µM | > 100 µM | > 100 µM | 79 µM | > 100 µM | > 100 µM |  | > 100 µM |  |  |  |  |  |  |  |  |  |
| CC(=O)c1ccc2c(c1)oc(=O)n2CCN1CCCCC1 |  | > 100 µM | > 100 µM | > 100 µM | > 100 µM | > 100 µM | > 100 µM | > 100 µM | > 100 µM | > 100 µM | > 100 µM |  |  |  |  |  |  |  |  |  |
| CC1=C(OC2OC(CO)C(O)C(O)C2O)C(=O)C[C@H]2C1=CC[C@@H]1[C@@]2(C)C(=O)C[C@]2(C)[C@@H]([C@@](C)(O)C(=O)CCC(C)(C)O)[C@H](O)C[C@@]12C (some centres not stated) | > 100 µM | > 100 µM | > 100 µM | > 100 µM | > 100 µM | > 100 µM | > 100 µM | > 100 µM | > 100 µM | > 100 µM | > 100 µM | > 100 µM |  |  |  |  |  |  |  |  |
| O=[N+]([O-])C(=C(N1CCOCC1)N1CCOCC1)/C(Cl)=C(\Cl)[N+](=O)[O-] | 50.8 µM | 14.6 µM | 7.62 µM | > 100 µM | 25.1 µM | 9.29 µM | 54.2 µM | 36.4 µM | 28.9 µM | 3.04 µM | 5.27 µM | 18 µM |  |  |  |  |  |  |  |  |
| Cn1c2nc3ccccc3c-2cc2ccccc21 | 33.2 µM and 88.7 µM | 15.2 µM and > 100 µM | > 35.9 µM and 17.2 µM | > 100 µM and 39.7 µM | 30.1 µM and 23.1 µM | 11.5 µM and 23.2 µM | 20.2 µM and > 100 µM | > 40.5 µM and 20.8 µM | > 43.2 µM and 23.1 µM | 16.8 µM and 24 µM | > 48.7 µM and 39 µM | 11.6 µM and 37.7 µM | 3.38 µM and 7.11 µM | 2.06 µM and 4.8 µM | 4.27 µM and 10.4 µM | 3.35 µM and 10.6 µM | 2.76 µM and 12.1 µM | 4.87 µM and 10.8 µM | 4 µM and 8.37 µM | 2.6 µM and 5.47 µM |
| NC1=NC(OCC2(CO)CCC2)C=C(NCC2(CO)CCC2)N1 (configuration not stated) | > 100 µM |  | > 100 µM | > 100 µM | > 100 µM | > 100 µM | > 100 µM | > 100 µM | > 100 µM | > 100 µM | > 100 µM | > 100 µM |  |  |  |  |  |  |  |  |
| O=S1(=O)CCN(Cc2ccccc2)/C1=N\S(=O)(=O)c1ccc(Cl)cc1 | > 100 µM | 33.1 µM | 34.3 µM | > 100 µM | 32.2 µM | 35.3 µM | 35.8 µM | > 100 µM | 32.8 µM | 41.9 µM | 36.7 µM | 32.5 µM |  |  |  |  |  |  |  |  |
| O=C1CC2(CCC(O)(c3ccc(Cl)cc3)C(C(=O)c3ccc(Cl)cc3)C2)C(=O)c2ccccc2N1 (configuration not stated) | > 50.8 µM | 25.4 µM | > 56.5 µM | > 100 µM | 98.1 µM | 53.8 µM | > 44.5 µM | 39.5 µM | 20.6 µM | 43.4 µM | > 100 µM | 49.9 µM |  |  |  |  |  |  |  |  |
| c1ccc(CCN(Cc2nc3ccccc3[nH]2)Cc2nc3ccccc3[nH]2)cc1 | 44.8 µM | 22.4 µM | 31.2 µM | 12.9 µM | 36.3 µM | 37.9 µM | 18.1 µM | 35.4 µM | 30.4 µM | 16.3 µM | 26 µM | 26.2 µM |  |  |  |  |  |  |  |  |
| CSc1cc(Cl)c(C)cc1S(=O)(=O)NC(=O)NNc1ccc(F)c(Cl)c1 | > 100 µM | > 100 µM | > 100 µM | > 100 µM | > 100 µM |  | > 100 µM | > 100 µM | > 100 µM | > 100 µM | > 100 µM |  |  |  |  |  |  |  |  |  |
| C=C(C)[C@@H]1CC[C@]2(C(=O)O)CC[C@]3(C)[C@H](CC[C@@H]4[C@@]5(C)CC[C@H](C(=O)/C=C/c6ccc(O)cc6)C(C)(C)[C@@H]5CC[C@]43C)[C@@H]12 | > 100 µM |  | 9.53 µM | > 100 µM | 18 µM | 20.8 µM | 29.3 µM | 21.7 µM | 26.5 µM | 10.4 µM | 15.2 µM | 18.4 µM |  |  |  |  |  |  |  |  |
| Cc1ccc(S(=O)(=O)N2CCCCN(S(=O)(=O)c3ccc(C)cc3)Cc3ccccc3OCCOCCOc3c4cccc3Cc3cccc5c3OCCOCCOc3ccccc3CN(S(=O)(=O)c3ccc(C)cc3)CCCN(S(=O)(=O)c3ccc(C)cc3)Cc3ccccc3OCCOCCOc3c(cccc3C4)Cc3cccc(c3OCCOCCOc3ccccc3C2)C5)cc1 | > 100 µM | > 100 µM | > 100 µM | > 100 µM | > 100 µM | > 100 µM | > 100 µM | > 100 µM |  | > 100 µM | > 100 µM | > 100 µM |  |  |  |  |  |  |  |  |
| CC(=O)OC1COC(n2c(N)c(C#N)c(C)c(C#N)c2=S)C(OC(C)=O)C1OC(C)=O (configuration not stated) | > 100 µM | > 100 µM |  | > 100 µM | > 100 µM | > 100 µM | > 100 µM | > 100 µM | > 100 µM | > 100 µM | > 100 µM | > 100 µM |  |  |  |  |  |  |  |  |
| CC(C)/C=N\n1c(N)c(C#N)c(C#N)c1C(C)C | > 100 µM | 91.1 µM | 45.7 µM | > 100 µM | 76.6 µM | 75.4 µM | 66.3 µM | 73.7 µM |  | 34.1 µM | > 100 µM | 64.2 µM |  |  |  |  |  |  |  |  |

— PubChem BioAssay (NCI)
